In US20060069132A1, “Azolecarboxamide herbicides” (priority 2004, published 2006):

Key:
cocklebur = assay: Test C pre-/postemergence herbicide test; assay type: in vivo, Xanthium strumarium
Procedure, shortened: (§1)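 Pre- and postemergence application, solvent/surfactant formulation; post at 1- to 4-leaf stage (2–18 cm). Greenhouse 12–14 d. Visual rating vs controls, 0 = no effect, 100 = complete control.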

giant foxtail = assay: Test C pre-/postemergence herbicide test; assay type: in vivo, Setaria faberi; conditions: preemergence
Procedure, shortened: as §1

yellow nutsedge = assay: Test C pre-/postemergence herbicide test; assay type: in vivo, Cyperus esculentus; conditions: preemergence
Procedure, shortened: as §1

eastern black nightshade = assay: Test C pre-/postemergence herbicide test; assay type: in vivo, Solanum ptycanthum; conditions: preemergence
Procedure, shortened: as §1

johnsongrass = assay: Test C pre-/postemergence herbicide test; assay type: in vivo, Sorghum halepense; conditions: preemergence
Procedure, shortened: as §1

morningglory = assay: Test C pre-/postemergence herbicide test; assay type: in vivo, Ipomoea coccinea; set-up: key to Plant response rating, Morningglory: 0 = no effect, 100 = complete control; conditions: preemergence
Procedure, shortened: as §1

ducksalad = assay: Test C flooded paddy test; assay type: in vivo, Heteranthera limosa; conditions: for Plant response rating, Ducksalad: 500 g ai/ha, visual rating after 12 to 14 days
barnyardgrass = assay: Test C flooded paddy test; assay type: in vivo, Echinochloa crus-galli; conditions: for Plant response rating, Barnyardgrass: 500 g ai/ha, visual rating after 12 to 14 days
Procedure, shortened: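 Weeds and wheat were sprayed after emergence, at a height of 2 to 18 cm (1–4 leaves), and paddy barnyardgrass was flooded and treated at two leaves. Assessment took place 12–14 days later in the greenhouse on a 0-to-100 visual control scale. A dash means no result was obtained.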

Surinam grass = assay: Test C pre-/postemergence herbicide test; assay type: in vivo, Urochloa decumbens; conditions: preemergence
Procedure, shortened: as §1

[1] = 62 g ai/ha, preemergence, scale 0 to 100
[2] = 250 g ai/ha, scale 0-100, preemergence
[3] = 125 g ai/ha, scale 0 (no effect) to 100 (complete control), visual, 12 to 14 days
[4] = 500 g ai/ha, scale 0 to 100 (0 no effect, 100 complete control), visual, 12 to 14 days
[5] = 125 g ai/ha, scale 0 to 100 (0 no effect, 100 complete control)
[6] = 250 g ai/ha, scale of 0 to 100, 0 is no effect, 100 is complete control
[7] = scale 0 to 100 (0 no effect, 100 complete control)
[8] = 62 g ai/ha, scale 0 to 100 (0 no effect, 100 complete control)

Question: With `CCN1N=C(C(C)(C)C)CC1C(=O)Nc1cc(C(=O)N2CCCC2)ccc1F` (racemic) [Compound 309] as the compound, how does the “Plant response rating, Cocklebur” value (cocklebur; [1]) read?
Answer: 0

Question: And the “Plant response rating, Cocklebur” value (cocklebur; 125 g ai/ha, scale 0 (no effect) to 100 (complete control), visual, 12 to 14 days, preemergence)?
Answer: 10

Question: And the “Plant response rating, Cocklebur” value (cocklebur; [2])?
Answer: 60

Question: And the “Cocklebur plant response rating” value (cocklebur; Preemergence, 500 g ai/ha, scale 0 to 100, 0 no effect, 100 complete control)?
Answer: 60

Question: What about the “Plant response rating, Foxtail, Giant” value (giant foxtail; 62 g ai/ha, scale 0 to 100) of the same compound?
Answer: 70

Question: And the “Plant response rating, Foxtail, Giant” value (giant foxtail; [3])?
Answer: 80

Question: What about the “Plant response rating, Foxtail, Giant” value (giant foxtail; 250 g ai/ha, scale 0-100) of the same compound?
Answer: 90

Question: And the “Plant response rating, Foxtail, Giant” value (giant foxtail; [4])?
Answer: 100

Question: And the “Plant response rating, Nutsedge, Yellow” value (yellow nutsedge; 62 g ai/ha, scale 0 to 100)?
Answer: 5

Question: And the “Plant response rating, Nutsedge, Yellow” value (yellow nutsedge; [3])?
Answer: 30

Question: What about the “Plant response rating, Nutsedge, Yellow” value (yellow nutsedge; 250 g ai/ha, scale 0-100) of the same compound?
Answer: 45

Question: And the “Plant response rating, Nutsedge, Yellow” value (yellow nutsedge; [4])?
Answer: 60

Question: What about the “Plant response rating, Nightshade” value (eastern black nightshade; 62 g ai/ha, scale 0 to 100) of the same compound?
Answer: 70

Question: And the “Plant response rating, Nightshade” value (eastern black nightshade; [3])?
Answer: 80

Question: What about the “Plant response rating, Nightshade” value (eastern black nightshade; 250 g ai/ha, scale 0-100) of the same compound?
Answer: 100

Question: What about the “Plant response rating, Nightshade” value (eastern black nightshade; [4]) of the same compound?
Answer: 100

Question: And the “Plant response rating, Johnsongrass” value (johnsongrass; 62 g ai/ha, scale 0 to 100)?
Answer: 75

Question: What about the “Plant response rating, Johnsongrass” value (johnsongrass; [3]) of the same compound?
Answer: 80

Question: And the “Plant response rating, Johnsongrass” value (johnsongrass; 250 g ai/ha, scale 0-100)?
Answer: 95

Question: And the “Plant response rating, Johnsongrass” value (johnsongrass; [4])?
Answer: 100

Question: And the “Plant response rating, Morningglory” value (morningglory; 62 g ai/ha, scale 0 to 100)?
Answer: 0

Question: And the “Plant response rating, Morningglory” value (morningglory; [3])?
Answer: 5

Question: And the “Plant response rating, Morningglory” value (morningglory; 250 g ai/ha, scale 0-100)?
Answer: 5

Question: What about the “Plant response rating, Morningglory” value (morningglory; [4]) of the same compound?
Answer: 40

Question: And the “Ducksalad plant response rating” value (ducksalad; 62 g ai/ha, scale 0 to 100)?
Answer: 85

Question: And the “Ducksalad plant response rating” value (ducksalad; [5])?
Answer: 90

Question: And the “Ducksalad plant response rating” value (ducksalad; [6])?
Answer: 90

Question: What about the “Plant response rating, Ducksalad” value (ducksalad; [7]) of the same compound?
Answer: 90

Question: What about the “Barnyardgrass plant response rating” value (barnyardgrass; [8]) of the same compound?
Answer: 50

Question: What about the “Barnyardgrass plant response rating” value (barnyardgrass; [5]) of the same compound?
Answer: 60

Question: What about the “Barnyardgrass plant response rating” value (barnyardgrass; [6]) of the same compound?
Answer: 85

Question: And the “Plant response rating, Barnyardgrass” value (barnyardgrass; [7])?
Answer: 90

Question: And the “Plant response rating, Surinam Grass” value (Surinam grass; 62 g ai/ha, scale 0 to 100)?
Answer: 50

Question: What about the “Plant response rating, Surinam Grass” value (Surinam grass; 250 g ai/ha, scale 0-100) of the same compound?
Answer: 90

Question: And the “Plant response rating, Surinam Grass” value (Surinam grass; [4])?
Answer: 100

Question: How did the “Plant response rating, Cocklebur” value (cocklebur; [1]) turn out when `CCC1=NN(C(C)(C)C)CC1C(=O)Nc1cc(C(=O)N2CC=CC2)ccc1F` (racemic) [Compound 340] was run?
Answer: 0

Question: What about the “Plant response rating (0 = no effect, 100 = complete control), Cocklebur” value (cocklebur; 125 g ai/ha, preemergence) of the same compound?
Answer: 0

Question: And the “Plant response rating, Cocklebur” value (cocklebur; [2])?
Answer: 0

Question: What about the “Plant response rating, Cocklebur” value (cocklebur; 500 g ai/ha, scale 0 to 100 (0 no effect, 100 complete control), visual, 12 to 14 days, preemergence) of the same compound?
Answer: 40

Question: And the “Plant response rating, Foxtail, Giant” value (giant foxtail; 62 g ai/ha, scale 0 to 100)?
Answer: 0

Question: And the “Plant response rating (0 = no effect, 100 = complete control), Foxtail, Giant” value (giant foxtail; 125 g ai/ha)?
Answer: 10

Question: And the “Plant response rating, Foxtail, Giant” value (giant foxtail; 250 g ai/ha, scale 0-100)?
Answer: 60

Question: And the “Plant response rating, Foxtail, Giant” value (giant foxtail; [4])?
Answer: 85

Question: What about the “Plant response rating, Nutsedge, Yellow” value (yellow nutsedge; 62 g ai/ha, scale 0 to 100) of the same compound?
Answer: 0

Question: And the “Plant response rating (0 = no effect, 100 = complete control), Nutsedge, Yellow” value (yellow nutsedge; 125 g ai/ha)?
Answer: 0

Question: What about the “Plant response rating, Nutsedge, Yellow” value (yellow nutsedge; 250 g ai/ha, scale 0-100) of the same compound?
Answer: 0

Question: And the “Plant response rating, Nutsedge, Yellow” value (yellow nutsedge; [4])?
Answer: 60

Question: And the “Plant response rating, Nightshade” value (eastern black nightshade; 62 g ai/ha, scale 0 to 100)?
Answer: 60

Question: And the “Plant response rating (0 = no effect, 100 = complete control), Nightshade” value (eastern black nightshade; 125 g ai/ha)?
Answer: 90

Question: What about the “Plant response rating, Nightshade” value (eastern black nightshade; 250 g ai/ha, scale 0-100) of the same compound?
Answer: 100

Question: What about the “Plant response rating, Nightshade” value (eastern black nightshade; [4]) of the same compound?
Answer: 100

Question: What about the “Plant response rating, Johnsongrass” value (johnsongrass; 62 g ai/ha, scale 0 to 100) of the same compound?
Answer: 15

Question: What about the “Plant response rating (0 = no effect, 100 = complete control), Johnsongrass” value (johnsongrass; 125 g ai/ha) of the same compound?
Answer: 50

Question: And the “Plant response rating, Johnsongrass” value (johnsongrass; 250 g ai/ha, scale 0-100)?
Answer: 50

Question: And the “Plant response rating, Johnsongrass” value (johnsongrass; [4])?
Answer: 90

Question: What about the “Plant response rating, Morningglory” value (morningglory; 62 g ai/ha, scale 0 to 100) of the same compound?
Answer: 0

Question: And the “Plant response rating (0 = no effect, 100 = complete control), Morningglory” value (morningglory; 125 g ai/ha)?
Answer: 5

Question: What about the “Plant response rating, Morningglory” value (morningglory; 250 g ai/ha, scale 0-100) of the same compound?
Answer: 10

Question: What about the “Plant response rating, Morningglory” value (morningglory; [4]) of the same compound?
Answer: 50

Question: And the “Ducksalad plant response rating” value (ducksalad; 62 g ai/ha, scale 0 to 100)?
Answer: 50

Question: And the “Ducksalad plant response rating” value (ducksalad; [5])?
Answer: 70

Question: And the “Ducksalad plant response rating” value (ducksalad; [6])?
Answer: 70

Question: What about the “Plant response rating, Ducksalad” value (ducksalad; [7]) of the same compound?
Answer: 90

Question: What about the “Barnyardgrass plant response rating” value (barnyardgrass; [8]) of the same compound?
Answer: 20

Question: And the “Barnyardgrass plant response rating” value (barnyardgrass; [5])?
Answer: 50

Question: What about the “Barnyardgrass plant response rating” value (barnyardgrass; [6]) of the same compound?
Answer: 60

Question: What about the “Plant response rating, Barnyardgrass” value (barnyardgrass; [7]) of the same compound?
Answer: 70

Question: And the “Plant response rating, Surinam Grass” value (Surinam grass; 62 g ai/ha, scale 0 to 100)?
Answer: 0

Question: And the “Plant response rating (0 = no effect, 100 = complete control), Surinam Grass” value (Surinam grass; 125 g ai/ha)?
Answer: 60

Question: And the “Plant response rating, Surinam Grass” value (Surinam grass; 250 g ai/ha, scale 0-100)?
Answer: 65

Question: And the “Plant response rating, Surinam Grass” value (Surinam grass; [4])?
Answer: 85
